Laboratory results: EPA's ToxValDB 9.5 (doi:10.2903/j.efsa.2005.285)

Legend:
Bovidae = conditions: subchronic, oral, diet; for LEL: duration: 12 weeks, no effects
Canidae = conditions: chronic, oral, Beagle, organ weight
Gallus gallus = conditions: reproduction developmental, oral, diet, F
Ovis sp. = conditions: oral, diet
Oncorhynchus mykiss = conditions: chronic/long-term; duration: 240 days; oral; feed; clinical chemistry
Sus scrofa = conditions: subchronic; duration: 60 days; oral; diet; Not specified; no effects

Compound	LEL (Bovidae; M) [mg/kg-day]	NOAEL (Bovidae; duration: 43 days, F, clinical signs) [mg/kg-day]	NOAEL (Canidae; duration: 15.6 months, diet, M/F) [mg/kg-day]	NOAEL (Gallus gallus; duration: 2 years, no effects) [mg/kg-day]	LEL (Ovis sp.; subchronic, duration: 12 weeks, no effects) [mg/kg-day]	LEL (Bovidae; F) [mg/kg-day]	NOAEL (Canidae; duration: 2 years, capsule) [mg/kg-day]	NOAEL (Gallus gallus; duration: 13 months, mortality) [mg/kg-day]	LOEL (Oncorhynchus mykiss) [µg/kg-day]	NOAEL (Ovis sp.; chronic, duration: 32 weeks, body weight) [mg/kg-day]	LEL (Sus scrofa) [mg/kg-day]
ClC1=C(Cl)[C@]2(Cl)[C@H]3[C@H]([C@@H]4C=C[C@H]3C4)[C@@]1(Cl)C2(Cl)Cl [Aldrin]	0.3	1.5	0.05	0.06	0.3						
ClC1=C(Cl)[C@]2(Cl)[C@@H]3[C@@H]4C[C@@H]([C@H]5O[C@@H]45)[C@@H]3[C@@]1(Cl)C2(Cl)Cl [Dieldrin]	0.06					0.08	0.005	0.6	14	1	1.2
